Experimental data taken from US6787530B1, “Use of pregnane-diones as analgesic agents” (priority 1996, dated 2004).
Entries after “also recorded” stand apart in the source; their conditions may differ.

Key:
[1] = system: mice; assay: PAN LABS toxicity test; format: in vivo, mouse
Description: The experiments from our laboratory are supported by observations by an independent body, PAN LABS. A sample of alphadolone used in the above experiments in rats in our laboratory was sent to a commercial drug-testing house, called PAN LABS. They gave the drug to a number of preparations to look for toxicity effects as well as pharmacological effect. In one toxicity test performed at PAN LABS, doses of up to 300 mg per kg of alphadolone was given to mice.

[2] = system: rats; assay: Sedation scoring (righting reflex, locomotion) after intravenous injection; format: in vivo, rat
Text: It is generally accepted in the literature that both alphaxalone and alphadolone are intravenous anaesthetics, i.e. when they are given intravenously, they produce sedation and unconsciousness to a level sufficient for surgery. […] Such data, although alluded to in the literature, is not stated clearly with scientific evidence. Thus, we performed the experiments described in Example 2. Rats were given an intravenous injection of alphadolone. All of the rats became unconscious and surgically anaesthetised within 5 seconds of the intravenous injection. […] Thus, it can be concluded that intravenous injection of alphadolone produces unconsciousness.
Four rats (wt 100 g) were given 0.25 ml injections of alphadolone solution (10 mg/ml; dissolved in 10% Cremophor EL), into the lateral tail vein. A stopwatch was used to time the following scoring of sedation every 15 seconds:
1—righting reflex but no spontaneous locomotion
2—spontaneous locomotion but uncoordinated
3—normal locomotion and exploratory behaviour: full recovery
They all recovered fully within 90 seconds of the drug administration.

[3] = system: rats; assay: Loss of righting reflex and loss of coordination in the rotarod test after intraperitoneal dosing
Text: (§1) Groups of 10 rats were examined for the duration of the loss of righting reflex and loss of coordination in the rotarod test and also for antinociceptive effects in the electrical current threshold test measured in the tail. […] Thus we were able to compare the duration of sedation and anaesthesia and quantity of antinociception following intraperitoneal administration of the neurosteroid mixture and also following the components of the mixture at the doses which were given when the combination was used.
We have gone on to test the ability for alphadolone to produce sedation. We have given doses up to […] intraperitoneally of alphadolone.

[4] = system: spinal cord GABAA receptors; format: in vivo, rat
Text: as §1
Rats were given a range of doses of alphadolone from 0.1 to 100 mg/kg intraperitoneally. The antinociceptive effect was measured using electrical current in the tail.

[5] = Glaxo in-house experiments; cited from earlier work
[6] = system: patients scheduled for knee reconstruction surgery; assay: Phase 1 study of oral alphadolone: side effects (sedation, nausea, respiratory depression, disorientation); format: in vivo, human
Description: The study consisted of two phases. The first phase was a dose escalation study. At any time during this phase as well as the second phase, if the patient was randomised to receive placebo then a capsule containing lactose was administered orally at the time of medication. If the patient was randomised to receive alphadolone then the first patient so randomised received 25 mg alphadolone acetate orally. The patient was monitored for efficacy of the medication and side effects. If there were no unacceptable side effects such as respiratory depression or severe sedation or disorientation then the next patient randomised to receive the active treatment received a higher dose. The dose escalation planned was in the order, 25, 50, 100, 250, 500 and 1000 mg. The original plan was to continue dose escalation until unacceptable side effects occurred and then to reduce the dose to go onto the next, second, phase of the study, a double-blind comparison of the dose just below the high dose that produced unacceptable side effects compared with placebo. However, the view of the Ethics Committee was that this was more appropriate to a drug company sponsored trial and they ordered that the trial should switch from the dose escalation phase to the comparison phase when there was clear evidence of efficacy.
No premedication was given. The patients were taken to the operating theatre and subjected to a standardised anaesthetic regime that consisted of a propofol induction followed by a propofol infusion and the muscle relaxant of the anaesthetist's preference The trachea was intubated and lungs ventilated with a mixture of nitrous oxide and oxygen. Morphine 1-2 mg intravenously was given as indicated by normal signs of depth of anaesthesia. The amount of morphine used in the operating theatre was recorded in the case record form. After the end of surgery, the muscle relaxant was reversed with atropine and neostigmine and the patient sent to recovery. In the recovery ward the patient was reintroduced to the patient controlled analgesia machine containing morphine to deliver a dose of 1 mg increments with a lock out time of 5 minutes. The patient spent approximately half an hour in recovery ward and was then sent to the ward. The following observations and measurements were made one hour before, half an hour before, and just before giving the test medication (placebo or alphadolone) orally with 100 ml of water. The observations were continued every half hour thereafter until six hours after the capsule had been given:
Sedation on a four point score none, mild, moderate, unseasonable;
Nausea score rating none, mild, moderate, severe vomiting;
Respiratory depression scores as
none—respiratory rate greater than 10 oxygen saturation greater than 95%
mild—respiratory rate great than 6 and less than 10 oxygen saturation greater than 95%
moderate—respiratory rate less than 6 but oxygen saturation greater than 95%
unreasonable—respiratory rate less than 6 and/or oxygen saturation less than 95%
Light-headedness scored from none (no dizziness), mild (light dizziness but no nystagmus), moderate (feels dizzy and has nystagmus), severe (very dizzy with nausea);
Slurred speech scored as none, mild, moderate, severe;
Presence of disorientation;
Gaze evoked nystagmus scored as none, mild (1-2 jerks), moderate (constant slow jerks), severe (fast jerks and feeling dizzy);
Lack of co-ordination with two tests (a) close eyes touch nose with finger (b) touch 1, 2, 3, 4 fingers in turn with thumb; classified as none (both tests accomplished), mild (both tests accomplished but slowly), moderate (one test achieved after two attempts), severe (failed both tests after two attempts at each).
The total number of 0's, 1's, 2's, 3's and 4's recorded during the six hours after capsule administration were totalled for the five placebo treated and seven alphadolone treated patients and entered into a contingency table (table 2).

[7] = 0.1 to 100 mg/kg intraperitoneally, rats
[8] = ip, Saffan 2 ml/kg, alphaxalone 18 mg/kg, alphadolone 6 mg/kg, groups of 10 rats
[9] = six hours after capsule, 100, 250 and 500 mg orally, n = 7

CC(=O)OCC(=O)[C@H]1CC[C@H]2[C@@H]3CC[C@H]4C[C@H](O)CC[C@]4(C)[C@H]3C(=O)C[C@]12C [alphadolone, 21-acetoxy-3alpha-hydroxy-5alpha-pregnane-11,20-dione]
grip strength ([1]; 300 mg/kg, mice): mild decrease in grip strength; also recorded: slight decrease in grip strength
anaesthesia ([1]; doses of up to 300 mg per kg given to mice): did not produce anaesthesia
righting reflex / sedation ([2]; 25 mg/kg intravenous (lateral tail vein), 10% Cremophor EL, four rats): lost the righting reflex and were heavily sedated
time to full recovery after drug administration ([2]; 25 mg/kg intravenous, four rats): ≤ 90 s
time to unconsciousness and surgical anaesthesia after intravenous injection ([2]; intravenous injection, rats): ≤ 5 s
sedative effects [3, 7]: No sedative effects were observed
sedation, loss of coordination, abnormal behaviour ([3]; doses up to 300 mg/kg intraperitoneally (b128 prints 300 mg/g), rats): no sedative effects whatsoever; also recorded: no evidence of sedation or loss of coordination
sedation and anaesthesia (loss of righting reflex, loss of coordination in rotarod test) [3, 8]: no sedation or loss of righting reflex
dose response of antinociceptive effect (electrical current in the tail) [4, 7]: dose-related increase in antinociceptive effect
antinociceptive effects in the electrical current threshold test measured in the tail [4, 8]: all of the antinociceptive effects of the Saffan mixture could be achieved with alphadolone alone
intravenous anaesthetic potency relative to alphaxolone [5]: one-third the potency
side effects: sedation, nausea, disorientation, respiratory depression ([6]; dose escalation, 25 to 500 mg orally, humans): No sedation, nausea or disorientation or respiratory depression; also recorded: well tolerated up to a dose of 500 mg orally; also recorded: no sedation or disorientation whatsoever
nausea score and sedation score compared with placebo (chi-square) ([6]; n = 7 vs placebo n = 5, P=0.9459 nausea, P=0.8661 sedation): no significant difference
Nausea score 0 (none), number of scores [6, 9]: 72
Nausea score 1 (mild), number of scores [6, 9]: 10
Nausea score 2 (moderate), number of scores [6, 9]: 1
Sedation score 0 (none), number of scores [6, 9]: 20
Sedation score 1 (mild), number of scores [6, 9]: 48
Sedation score 2 (moderate), number of scores [6, 9]: 15
